Assay results as given in patent publication US11072628B2, “Nucleoside analogues for the treatment of parasitic infections” (UNIVERSITEIT GENT, priority 2017, dated 2021).
Where two headings read alike, the source gives them in different places.

Experiments:
[1] = tested on: T. b. rhodesiense STIB-900; experiment: In vitro drug susceptibility, T. b. rhodesiense STIB-900 (resazurin); assay type: cell-based, Trypanosoma brucei rhodesiense; details: Table 1; average of 2-4 independent determinations; read-out: T. brucei rhod. EC50
Protocol: (§1) All trypanosome strains were cultured in the standard HMI-9 medium supplemented with 10% fetal bovine serum (FBS) at 37° C. in a 5% CO2 atmosphere.

[2] = tested on: T. cruzi Tulahuen CL2 β galactosidase strain; experiment: T. cruzi Tulahuen CL2 β galactosidase strain on MRC-5SV2 cells (CPRG); assay type: cell-based, Trypanosoma cruzi
Protocol: All cultures and assays were conducted at 37° C./5% CO2. […] The results were expressed as % reduction in parasite burdens compared to control wells from which an EC50 was calculated.

[3] = tested on: T. brucei Squib 427; experiment: In vitro drug susceptibility, T. brucei Squib 427 (resazurin); assay type: cell-based, Trypanosoma brucei brucei; details: Table 1; average of 2-4 independent determinations; read-out: T. brucei brucei EC50
Protocol: as §1

[4] = tested on: MRC-5 fibroblasts; experiment: in vitro
Protocol: Cytotoxicity was assayed against MRC-5 fibroblasts. Results are depicted in Tables 4 and 5.

[5] = Table 2, average of 2-3 independent replicates

SMILES	EC50 [1] [µM]	EC50 [2, 5] [µM]	EC50 [3] [µM]	EC50 [4] [µM]	EC50 [2] [µM]
CSc1ncnc2c1c(Br)cn2[C@@H]1O[C@H](CO)C[C@H]1O [FH8510, 4-thiomethyl-5-bromo-N7-(3′-deoxy-β-D-ribofuranosyl)-pyrrolo[2,3-d]pyrimidine]	4.34	35.8	1.68	0.29	
CC(C)c1ccc(-c2cn([C@@H]3O[C@H](CO)C[C@H]3O)c3ncnc(N)c23)cc1 [FH9574, 4-amino-5-(4-isopropylphenyl)-N7-(3′-deoxy-β-D-ribofuranosyl)-pyrrolo[2,3-d]pyrimidine]	55.9	8.5	> 64	24.9	
COc1ccc(-c2cn([C@@H]3O[C@H](CO)C[C@H]3O)c3ncnc(N)c23)cc1Cl [FH10645]	2.51	3.3	7.13	> 64	
OC[C@@H]1C[C@@H](O)[C@H](n2ccc3c(Cl)ccnc32)O1 [FH9541, 4-chloro-N1-(3′-deoxy-β-D-ribofuranosyl)-pyrrolo[2,3-b]pyridine]	7.97		31.2	> 64	> 64
Nc1ncnc2c1c(Br)cn2[C@@H]1OC(CO)(CO)C[C@H]1O [FH9561, 4-amino-5-bromo-N7-(3′-deoxy-4′-hydroxymethyl-β-D-ribofuranosyl)-pyrrolo[2,3-d]pyrimidine]	5.6	> 64	26.8	> 64	
COc1ncnc2c1c(Br)cn2[C@@H]1O[C@H](CO)C[C@H]1O [FH8497, 4-methoxy-5-bromo-N7-(3′-deoxy-β-D-ribofuranosyl)-pyrrolo[2,3-d]pyrimidine]	3.7	> 64	2.62	2.7	
CNc1ncnc2c1c(Br)cn2[C@@H]1O[C@H](CO)C[C@H]1O [FH8516, 4-methylamino-5-bromo-N7-(3′-deoxy-β-D-ribofuranosyl)-pyrrolo[2,3-d]pyrimidine]	8.25	> 64	6.21	> 64	
Cc1cccc(-c2cn([C@@H]3O[C@H](CO)C[C@H]3O)c3ncnc(N)c23)c1 [FH10639, 4-amino-5-(3-methylphenyl)-N7-(3′-deoxy-β-D-ribofuranosyl)-pyrrolo[2,3-d]pyrimidine]	11.2	5.15	30.5	> 64	
O=c1[nH]cnc2c1c(Br)cn2[C@@H]1O[C@H](CO)C[C@H]1O [FH8500, 4-oxo-5-bromo-N7-(3′-deoxy-β-D-ribfuranosyl)-pyrrolo[2,3-d]pyrimidine]	2.26	> 64	8.09	> 64	
Nc1ncnc2c1cc(Br)n2[C@@H]1O[C@H](CO)C[C@H]1O [FH10622, 4-amino-6-bromo-N7-(3′-deoxy-β-D-ribfuranosyl)-pyrrolo[2,3-d]pyrimidine]	1.02	> 64	4.97	> 64	
C[C@@H]1C[C@@H](O)[C@H](n2cc(Br)c3c(N)ncnc32)O1 [FH8492, 4-amino-5-bromo-N7-(3′-5′-dideoxy-β-D-ribofuranosyl)-pyrrolo[2,3-d]pyrimidine]	20.1	12	33.5	10.2	
Nc1ncnc2c1c(SC(F)(F)F)cn2[C@@H]1O[C@H](CO)C[C@H]1O [FH9605, 4-amino-5-trifluoromethylthio-N7-(3′-deoxy-β-D-ribofuranosyl)-pyrrolo[2,3-d]pyrimidine]	21	26	27.2	18.6	
Cc1ccc(-c2cn([C@@H]3O[C@H](CO)C[C@H]3O)c3ncnc(N)c23)cc1C [FH10653, 4-amino-5-(3,4-dimethylphenyl)-N7-(3′-deoxy-β-D-ribofuranosyl)-pyrrolo[2,3-d]pyrimidine]	2.17	1.37	8.81	22.3	
